# Activity calls are given as the source filed them.
# How the values were obtained:
# [1] = molecular target: Peroxisome proliferator-activated receptor gamma/Nuclear receptor coactivator 1 (Homo sapiens, UniProt P37231); experiment: TR-FRET dose response biochemical High Throughput Screening assay for agonists of the steroid receptor coactivator 1 (SRC-1) recruitment by the peroxisome proliferator-activated receptor gamma (PPAR gamma): non-selective agonists. [Related pubchem assays (depositor defined):AID1300, AID1808, AID504735, AID631]; format: protein assay
# [2] = molecular target: Peroxisome proliferator-activated receptor gamma/Nuclear receptor coactivator 3 (Homo sapiens, UniProt P37231); experiment: TR-FRET dose response biochemical High Throughput Screening assay for agonists of the steroid receptor coactivator 3 (SRC-3) recruitment by the peroxisome proliferator-activated receptor gamma (PPAR gamma): non-selective agonists. [Related pubchem assays: 1301 (Confirmation screen.), 1048 (Primary screen.)]; format: functional
# [3] = molecular target: Peroxisome proliferator-activated receptor gamma/Nuclear receptor coactivator 2 (Homo sapiens, UniProt P37231); experiment: TR-FRET dose response biochemical High Throughput Screening assay for agonists of the steroid receptor coactivator 2 (SRC-2) recruitment by the peroxisome proliferator-activated receptor gamma (PPAR gamma): non-selective agonists. [Related pubchem assays: 1297, 1032 ]; format: functional
# [4] = NIH-3T3 fibroblast cytotoxicity, dose response, cytotoxicity control, cell-based, fluorescence, Alamar Blue, secondary assay (AID 2327); format: functional;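 also: NIH-3T3 mouse fibroblasts cultured with fluconazole at 8 µg/mL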
# [5] = tested on: Streptococcus sp. 'group A'; experiment: growth inhibition of control SK(-) GAS strain, dose response, counter-screen for streptokinase expression inhibitor project, luminescence, kanamycin, BacTiterGlo, confirmation (AID 1900); format: functional, organism-based
# [6] = molecular target: T1, Streptokinase A (Streptococcus pyogenes serotype M1, UniProt P10520); experiment: S. pyogenes streptokinase expression inhibitors, potency, dose response, plasminogen activation absorbance, OD405 (AID 1914); format: functional, Streptococcus pyogenes M1 GAS;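 also: secreted streptokinase activity via plasminogen activation per viability signal from cell pellet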
# T1 sequence (P10520 whole entry): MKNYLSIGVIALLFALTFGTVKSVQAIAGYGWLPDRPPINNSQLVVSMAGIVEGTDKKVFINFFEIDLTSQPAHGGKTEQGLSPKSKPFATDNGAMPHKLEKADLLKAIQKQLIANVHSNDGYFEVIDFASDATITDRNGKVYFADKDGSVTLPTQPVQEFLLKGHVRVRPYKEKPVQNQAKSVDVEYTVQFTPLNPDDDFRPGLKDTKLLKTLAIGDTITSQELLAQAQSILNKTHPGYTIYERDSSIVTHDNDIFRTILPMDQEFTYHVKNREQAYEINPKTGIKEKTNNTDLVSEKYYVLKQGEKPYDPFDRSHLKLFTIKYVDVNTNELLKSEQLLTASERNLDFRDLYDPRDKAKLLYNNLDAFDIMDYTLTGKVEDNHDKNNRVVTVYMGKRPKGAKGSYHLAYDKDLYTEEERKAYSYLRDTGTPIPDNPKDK
# [7] = C. albicans growth with fluconazole, confirmation, fluorescence, retest (AID 2467); format: functional, cell-based
# [8] = inhibitors of intracellular T. cruzi replication, confirmation, NIH3T3 host cells, beta-gal luminescence (AID 2044); format: functional, cell-based;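 also: intracellular parasites grown in NIH/3T3 mouse fibroblasts as host cells; luminescent beta-galactosidase reporter signal from transgenic T. cruzi replicating inside host cells; inhibitors lower the luminescence signal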
# [9] = growth suppression of PTEN-null colon cells, dose response, cell-based, HCT116 PTEN knockout (AID 1047); format: functional;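 also: HCT116 colon tumor cells with PTEN knocked out; cells exposed to compound for 60 hours before readout; potency for loss of cell viability measured by luminescence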
# [10] = cytotoxicity toward NIH3T3 fibroblasts, dose response, counter-screen, cell-based, ATP luminescence, mouse fibroblasts (AID 2010); format: functional;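 also: cells exposed to compound for about 90 hours before reading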
# [11] = growth suppression of beta-catenin-knockout colon cells, dose response, cell-based, HCT116, human colon tumor (AID 1045); format: functional;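 also: HCT116 colon tumor cells with beta catenin knocked out; cells exposed to compound for 60 hours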
# [12] = tested on: Streptococcus; experiment: Group A Streptococcus viability loss, dose response, counter-screen for streptokinase expression inhibitor project, luminescence, BacTiterGlo (AID 1915); format: functional, organism-based;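 also: potency for reduction of bacterial viability or growth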
# [13] = molecular target: T2, Cysteine protease ATG4B (Homo sapiens, UniProt Q9Y4P1); format: functional;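 also: Fluorescence-based dose-response confirmation assay measuring inhibition of ATG4B activity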
# T2 sequence (Q9Y4P1 whole entry): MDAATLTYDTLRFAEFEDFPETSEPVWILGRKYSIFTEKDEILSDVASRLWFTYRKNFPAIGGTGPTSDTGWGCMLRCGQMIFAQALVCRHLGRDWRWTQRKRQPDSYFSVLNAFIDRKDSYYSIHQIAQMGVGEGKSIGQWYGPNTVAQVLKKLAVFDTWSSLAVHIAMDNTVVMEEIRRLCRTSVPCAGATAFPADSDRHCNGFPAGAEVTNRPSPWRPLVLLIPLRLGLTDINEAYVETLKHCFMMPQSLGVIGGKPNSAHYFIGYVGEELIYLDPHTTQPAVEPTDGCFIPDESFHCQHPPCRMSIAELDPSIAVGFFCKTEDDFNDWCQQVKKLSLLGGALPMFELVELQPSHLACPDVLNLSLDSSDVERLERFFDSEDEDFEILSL
# [14] = molecular target: Phospholipase A2 (Homo sapiens, UniProt P04054); format: functional;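 also: confirmatory dose-response counterscreen on phospholipase A2, testing hits that came from an ultra-high-throughput screen for ATG4B inhibitors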
# [15] = tested on: Vero; experiment: cells; format: functional; conditions: Chlorocebus sabaeus
# [16] = molecular target: T3, DNA repair protein RAD52 homolog (Homo sapiens, UniProt P43351); format: functional, biochemical
# T3 sequence (P43351 whole entry): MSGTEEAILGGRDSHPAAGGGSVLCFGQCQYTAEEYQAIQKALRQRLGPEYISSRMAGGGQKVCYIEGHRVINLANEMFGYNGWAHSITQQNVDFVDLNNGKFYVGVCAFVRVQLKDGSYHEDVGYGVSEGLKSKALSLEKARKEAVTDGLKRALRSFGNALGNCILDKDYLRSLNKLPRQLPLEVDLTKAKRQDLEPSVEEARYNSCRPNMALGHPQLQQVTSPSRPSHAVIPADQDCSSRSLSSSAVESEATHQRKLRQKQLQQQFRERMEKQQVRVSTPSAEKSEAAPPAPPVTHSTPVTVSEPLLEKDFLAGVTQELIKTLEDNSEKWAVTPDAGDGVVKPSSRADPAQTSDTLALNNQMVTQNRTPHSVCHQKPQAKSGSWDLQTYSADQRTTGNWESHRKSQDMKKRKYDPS
# [17] = tested on: HEK293; experiment: NOD1 signaling inhibitors, primary screen, cell-based, luminescence, uHTS (AID 1578); format: functional; conditions: Homo sapiens
# [18] = tested on: HEK293; experiment: cells; format: functional, cell-based; conditions: Homo sapiens
# [19] = tested on: HEK293; experiment: cells; format: functional, cell-based; conditions: Homo sapiens; remark: listed apart in the source
# [20] = molecular target: Nucleotide-binding oligomerization domain-containing protein 2 (Homo sapiens, UniProt Q9HC29); experiment: NOD2 signaling inhibitors, cell-based, luminescence, uHTS, HEK293 (AID 1566); format: functional
# [21] = tested on: HEK293; experiment: NOD2 signaling inhibitors in MDP-stimulated cells, cell-based, uHTS, luminescence (AID 2001); format: functional; conditions: Homo sapiens
# [22] = tested on: HEK293; experiment: cells; format: functional, cell-based; conditions: Homo sapiens; remark: listed apart in the source
# [23] = molecular target: T4, RNA-binding protein pos-1 (Caenorhabditis elegans, UniProt G5EF15); experiment: inhibitors of POS-1/mex-3 RNA binding, dose response, biochemical, fluorescence polarization (AID 1964);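 also: purified POS-1 fused to maltose binding protein made in E. coli; potency of compounds blocking POS-1 binding to fluorescent RNA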
# T4 sequence (G5EF15 whole entry): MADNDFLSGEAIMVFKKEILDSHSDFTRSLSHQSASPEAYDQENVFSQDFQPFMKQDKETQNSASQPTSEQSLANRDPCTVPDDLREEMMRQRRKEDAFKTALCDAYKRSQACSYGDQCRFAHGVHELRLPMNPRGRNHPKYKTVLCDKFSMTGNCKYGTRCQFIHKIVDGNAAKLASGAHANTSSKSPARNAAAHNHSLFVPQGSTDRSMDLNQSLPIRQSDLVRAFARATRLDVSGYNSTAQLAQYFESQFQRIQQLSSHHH
# [24] = molecular target: T5, Zinc finger protein mex-5 (Caenorhabditis elegans, UniProt Q9XUB2); experiment: MEX-5/TCR-2 RNA interaction inhibitors, dose response, biochemical, C. elegans, fluorescence polarization (AID 1960)
# T5 sequence (Q9XUB2 whole entry): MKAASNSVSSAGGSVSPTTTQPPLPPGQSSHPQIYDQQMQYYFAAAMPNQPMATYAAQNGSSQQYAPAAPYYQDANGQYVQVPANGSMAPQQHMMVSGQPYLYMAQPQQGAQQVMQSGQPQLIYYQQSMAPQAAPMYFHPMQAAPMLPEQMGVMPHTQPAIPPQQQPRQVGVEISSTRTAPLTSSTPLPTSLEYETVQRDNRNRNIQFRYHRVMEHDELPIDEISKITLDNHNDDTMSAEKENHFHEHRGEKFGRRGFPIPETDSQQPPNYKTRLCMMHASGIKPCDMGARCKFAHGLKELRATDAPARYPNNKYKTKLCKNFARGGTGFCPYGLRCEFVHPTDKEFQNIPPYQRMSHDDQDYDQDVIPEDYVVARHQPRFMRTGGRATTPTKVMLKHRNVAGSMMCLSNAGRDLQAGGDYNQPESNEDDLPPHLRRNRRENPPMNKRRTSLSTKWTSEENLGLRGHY
# [25] = molecular target: T6, Coagulation factor XII (Homo sapiens, UniProt P00748); format: functional;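 also: activated factor XIIa alpha cleaving a fluorogenic AMC peptide substrate; inhibitor potency from loss of enzyme activity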
# T6 sequence (P00748 whole entry): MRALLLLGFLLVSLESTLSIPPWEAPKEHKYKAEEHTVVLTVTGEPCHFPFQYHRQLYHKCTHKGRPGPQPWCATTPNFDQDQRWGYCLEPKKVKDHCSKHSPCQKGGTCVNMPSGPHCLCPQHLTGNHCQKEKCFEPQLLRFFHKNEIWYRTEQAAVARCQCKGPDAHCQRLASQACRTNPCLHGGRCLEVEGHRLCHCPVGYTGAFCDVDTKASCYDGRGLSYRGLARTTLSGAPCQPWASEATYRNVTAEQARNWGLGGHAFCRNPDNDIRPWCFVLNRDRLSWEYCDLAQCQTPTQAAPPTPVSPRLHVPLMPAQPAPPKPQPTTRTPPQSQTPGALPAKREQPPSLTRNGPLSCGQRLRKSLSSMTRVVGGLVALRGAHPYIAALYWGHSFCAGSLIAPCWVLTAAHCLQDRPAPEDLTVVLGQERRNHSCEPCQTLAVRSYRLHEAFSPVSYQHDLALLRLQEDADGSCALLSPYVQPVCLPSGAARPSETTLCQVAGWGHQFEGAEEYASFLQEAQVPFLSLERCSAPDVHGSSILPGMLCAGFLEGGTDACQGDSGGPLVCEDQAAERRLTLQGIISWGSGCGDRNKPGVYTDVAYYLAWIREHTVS
# [26] = molecular target: T7, Cytochrome P450 1A2 (Homo sapiens, UniProt P05177);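 also: PubChem cytochrome P450 panel assay, CYP1A2 panel member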
# T7 sequence (P05177 whole entry): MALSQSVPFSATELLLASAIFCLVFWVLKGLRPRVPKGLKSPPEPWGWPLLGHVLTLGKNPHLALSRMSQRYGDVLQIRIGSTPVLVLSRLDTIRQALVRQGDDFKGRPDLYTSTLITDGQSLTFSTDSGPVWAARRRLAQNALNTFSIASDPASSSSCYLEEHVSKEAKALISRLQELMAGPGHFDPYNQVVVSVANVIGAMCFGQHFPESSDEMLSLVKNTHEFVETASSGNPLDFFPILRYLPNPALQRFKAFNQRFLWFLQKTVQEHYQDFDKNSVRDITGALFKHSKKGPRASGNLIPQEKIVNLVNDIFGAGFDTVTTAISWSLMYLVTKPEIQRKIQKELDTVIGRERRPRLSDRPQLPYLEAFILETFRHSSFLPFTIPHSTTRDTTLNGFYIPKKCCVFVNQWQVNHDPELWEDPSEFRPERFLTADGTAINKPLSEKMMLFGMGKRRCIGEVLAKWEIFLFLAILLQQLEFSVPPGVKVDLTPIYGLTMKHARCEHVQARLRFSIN
# [27] = molecular target: Cytochrome P450 2C9 (Homo sapiens, UniProt P11712)
# [28] = molecular target: Cytochrome P450 2D6 (Homo sapiens, UniProt P10635);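 also: CYP2D6 member of a cytochrome P450 panel assay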
# Chain of Peroxisome proliferator-activated receptor gamma/Nuclear receptor coactivator 2 (P37231 whole entry): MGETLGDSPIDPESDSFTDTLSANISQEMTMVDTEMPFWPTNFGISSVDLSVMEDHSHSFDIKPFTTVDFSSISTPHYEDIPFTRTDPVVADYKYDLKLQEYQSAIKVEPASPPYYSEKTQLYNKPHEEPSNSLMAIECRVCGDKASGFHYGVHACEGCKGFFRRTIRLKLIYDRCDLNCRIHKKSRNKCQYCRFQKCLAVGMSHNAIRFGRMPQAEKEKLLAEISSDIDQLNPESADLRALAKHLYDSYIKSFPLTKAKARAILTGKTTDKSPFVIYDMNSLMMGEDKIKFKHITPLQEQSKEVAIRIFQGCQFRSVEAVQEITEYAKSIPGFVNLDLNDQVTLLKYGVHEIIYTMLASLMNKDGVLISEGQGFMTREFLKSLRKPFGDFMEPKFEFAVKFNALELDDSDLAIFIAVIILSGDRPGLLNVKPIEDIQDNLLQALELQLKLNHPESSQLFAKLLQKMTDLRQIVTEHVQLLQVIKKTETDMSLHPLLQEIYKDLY
# Chain of Peroxisome proliferator-activated receptor gamma/Nuclear receptor coactivator 2 (Q15596 whole entry, further chain): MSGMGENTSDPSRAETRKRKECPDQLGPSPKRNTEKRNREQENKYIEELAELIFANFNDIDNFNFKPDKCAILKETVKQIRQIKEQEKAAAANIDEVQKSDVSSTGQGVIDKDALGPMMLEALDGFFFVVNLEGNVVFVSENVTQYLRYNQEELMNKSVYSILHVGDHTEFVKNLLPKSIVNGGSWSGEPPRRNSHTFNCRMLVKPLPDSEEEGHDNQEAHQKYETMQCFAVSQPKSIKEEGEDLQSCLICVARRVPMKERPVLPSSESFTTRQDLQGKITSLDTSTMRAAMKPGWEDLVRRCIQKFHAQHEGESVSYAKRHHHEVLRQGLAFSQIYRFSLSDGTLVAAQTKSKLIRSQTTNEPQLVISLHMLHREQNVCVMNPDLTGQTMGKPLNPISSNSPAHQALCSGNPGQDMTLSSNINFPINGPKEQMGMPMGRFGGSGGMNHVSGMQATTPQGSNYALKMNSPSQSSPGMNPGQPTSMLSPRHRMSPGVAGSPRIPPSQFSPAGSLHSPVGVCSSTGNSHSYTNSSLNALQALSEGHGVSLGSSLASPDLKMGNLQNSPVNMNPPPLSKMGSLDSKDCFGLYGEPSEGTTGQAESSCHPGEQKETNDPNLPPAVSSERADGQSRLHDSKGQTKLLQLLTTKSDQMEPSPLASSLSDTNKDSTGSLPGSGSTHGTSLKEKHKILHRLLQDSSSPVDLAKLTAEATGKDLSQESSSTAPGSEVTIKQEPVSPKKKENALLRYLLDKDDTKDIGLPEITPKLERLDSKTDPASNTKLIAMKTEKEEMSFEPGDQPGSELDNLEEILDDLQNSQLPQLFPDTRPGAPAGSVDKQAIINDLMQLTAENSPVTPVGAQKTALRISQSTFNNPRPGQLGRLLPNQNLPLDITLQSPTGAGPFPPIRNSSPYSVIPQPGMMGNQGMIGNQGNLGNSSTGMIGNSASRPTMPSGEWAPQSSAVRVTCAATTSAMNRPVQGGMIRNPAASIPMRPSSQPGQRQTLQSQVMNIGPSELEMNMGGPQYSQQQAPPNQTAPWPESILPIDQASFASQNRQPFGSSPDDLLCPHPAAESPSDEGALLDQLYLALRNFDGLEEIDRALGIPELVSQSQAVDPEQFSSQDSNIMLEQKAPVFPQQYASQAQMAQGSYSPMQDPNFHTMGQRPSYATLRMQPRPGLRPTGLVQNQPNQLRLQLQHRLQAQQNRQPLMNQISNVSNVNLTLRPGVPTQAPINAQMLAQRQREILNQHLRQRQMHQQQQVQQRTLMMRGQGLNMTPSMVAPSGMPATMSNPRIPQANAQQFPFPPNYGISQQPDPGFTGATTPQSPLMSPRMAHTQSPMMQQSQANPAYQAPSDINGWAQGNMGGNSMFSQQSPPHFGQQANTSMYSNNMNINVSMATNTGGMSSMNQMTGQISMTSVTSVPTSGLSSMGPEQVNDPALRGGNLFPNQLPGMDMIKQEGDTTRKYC
# Chain of Peroxisome proliferator-activated receptor gamma/Nuclear receptor coactivator 3 (P37231 whole entry): as the sequence (P37231 whole entry) above
# Chain of Peroxisome proliferator-activated receptor gamma/Nuclear receptor coactivator 3 (Q9Y6Q9 whole entry, further chain): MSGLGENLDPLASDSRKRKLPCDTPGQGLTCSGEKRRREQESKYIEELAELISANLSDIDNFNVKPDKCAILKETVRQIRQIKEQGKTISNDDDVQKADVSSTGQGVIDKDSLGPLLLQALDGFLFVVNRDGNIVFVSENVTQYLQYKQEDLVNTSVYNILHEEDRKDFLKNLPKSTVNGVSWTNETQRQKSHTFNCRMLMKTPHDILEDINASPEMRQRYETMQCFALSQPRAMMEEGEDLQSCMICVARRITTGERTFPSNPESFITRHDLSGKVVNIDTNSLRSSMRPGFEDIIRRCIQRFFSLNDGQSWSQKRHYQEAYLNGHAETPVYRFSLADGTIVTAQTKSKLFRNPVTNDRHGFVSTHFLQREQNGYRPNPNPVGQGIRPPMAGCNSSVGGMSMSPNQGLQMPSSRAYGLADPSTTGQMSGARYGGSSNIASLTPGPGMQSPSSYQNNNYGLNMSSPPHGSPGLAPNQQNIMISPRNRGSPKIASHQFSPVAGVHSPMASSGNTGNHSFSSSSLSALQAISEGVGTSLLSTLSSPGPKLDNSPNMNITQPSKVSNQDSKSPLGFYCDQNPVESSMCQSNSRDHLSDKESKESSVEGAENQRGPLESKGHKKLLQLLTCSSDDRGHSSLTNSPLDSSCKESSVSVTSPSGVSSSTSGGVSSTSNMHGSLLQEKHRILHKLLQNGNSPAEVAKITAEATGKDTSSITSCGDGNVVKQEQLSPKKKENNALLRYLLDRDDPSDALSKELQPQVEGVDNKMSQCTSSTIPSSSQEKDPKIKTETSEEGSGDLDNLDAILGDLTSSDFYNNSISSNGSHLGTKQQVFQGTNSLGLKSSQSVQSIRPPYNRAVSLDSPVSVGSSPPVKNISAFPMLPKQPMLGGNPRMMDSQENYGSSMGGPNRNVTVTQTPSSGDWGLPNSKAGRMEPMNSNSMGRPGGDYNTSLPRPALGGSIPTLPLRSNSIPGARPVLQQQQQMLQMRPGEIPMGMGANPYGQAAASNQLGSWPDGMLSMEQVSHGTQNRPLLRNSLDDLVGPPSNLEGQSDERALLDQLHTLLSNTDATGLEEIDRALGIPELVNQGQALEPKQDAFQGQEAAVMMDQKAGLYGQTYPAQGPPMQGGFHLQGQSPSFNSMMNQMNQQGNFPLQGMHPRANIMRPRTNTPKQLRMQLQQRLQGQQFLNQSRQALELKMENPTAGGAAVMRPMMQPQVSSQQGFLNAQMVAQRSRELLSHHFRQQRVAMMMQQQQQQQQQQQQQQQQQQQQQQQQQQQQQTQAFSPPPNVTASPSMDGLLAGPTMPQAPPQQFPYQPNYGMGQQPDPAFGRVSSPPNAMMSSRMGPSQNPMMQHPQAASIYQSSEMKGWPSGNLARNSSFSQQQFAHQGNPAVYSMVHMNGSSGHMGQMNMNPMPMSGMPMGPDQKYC
# Chain of Nucleotide-binding oligomerization domain-containing protein 2 (Q9HC29 whole entry, the tested form may be a part): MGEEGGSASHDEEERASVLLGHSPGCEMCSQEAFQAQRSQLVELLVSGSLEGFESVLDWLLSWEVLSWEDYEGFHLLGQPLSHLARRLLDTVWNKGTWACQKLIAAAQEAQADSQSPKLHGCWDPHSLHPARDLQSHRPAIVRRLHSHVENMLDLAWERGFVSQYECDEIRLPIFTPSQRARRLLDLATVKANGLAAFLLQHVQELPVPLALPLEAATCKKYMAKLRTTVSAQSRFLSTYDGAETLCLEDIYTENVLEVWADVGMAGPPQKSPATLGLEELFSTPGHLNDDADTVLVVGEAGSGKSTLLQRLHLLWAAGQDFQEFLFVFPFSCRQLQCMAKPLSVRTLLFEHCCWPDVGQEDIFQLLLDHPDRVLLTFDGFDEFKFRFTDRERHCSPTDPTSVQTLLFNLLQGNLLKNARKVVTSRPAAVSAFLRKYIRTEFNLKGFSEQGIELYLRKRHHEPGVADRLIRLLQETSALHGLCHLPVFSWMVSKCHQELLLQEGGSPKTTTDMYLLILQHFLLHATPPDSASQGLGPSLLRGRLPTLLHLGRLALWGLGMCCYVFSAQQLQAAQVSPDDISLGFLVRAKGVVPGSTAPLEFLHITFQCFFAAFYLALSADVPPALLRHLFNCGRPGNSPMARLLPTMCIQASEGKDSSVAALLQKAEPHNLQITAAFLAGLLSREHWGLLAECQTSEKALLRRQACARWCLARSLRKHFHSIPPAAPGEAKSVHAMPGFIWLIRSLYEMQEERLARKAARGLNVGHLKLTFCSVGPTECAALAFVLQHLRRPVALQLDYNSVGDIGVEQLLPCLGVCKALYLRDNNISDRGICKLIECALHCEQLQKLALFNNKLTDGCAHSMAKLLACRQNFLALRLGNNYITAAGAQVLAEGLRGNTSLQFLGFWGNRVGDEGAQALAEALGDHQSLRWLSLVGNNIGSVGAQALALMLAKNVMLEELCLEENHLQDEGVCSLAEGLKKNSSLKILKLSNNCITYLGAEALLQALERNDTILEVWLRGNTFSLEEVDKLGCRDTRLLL
# Chain of Phospholipase A2 (P04054 whole entry): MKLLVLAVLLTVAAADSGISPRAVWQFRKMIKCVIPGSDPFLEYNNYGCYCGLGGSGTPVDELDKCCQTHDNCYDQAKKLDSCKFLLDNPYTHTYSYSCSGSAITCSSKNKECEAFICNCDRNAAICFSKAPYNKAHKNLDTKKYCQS
smiles,measurement,setting,value
CCn1c(=O)cc(SCC(=O)Nc2cccc(SC)c2)c2ccccc21,EC50,[1],69.8 µM (inactive)
same,EC50,[2],> 79.4 µM (not active)
same,EC50,[3],> 26.5 µM (not active)
CCCCCCCOC(=O)C[N+](C)(C)CCOC1CC2CCC1(C)C2(C)C (centres undefined),EC50,[4],> 150 µM (inactive)
same,EC50,[5],3.84 µM (active)
same,EC50,[6],5.77 µM (active)
same,EC50,[7],0.997 µM (active)
same,EC50,[8],0.224 µM (active)
same,EC50,[9],15.8 µM (active)
same,EC50,[10],> 60 µM (not active)
same,EC50,[11],20.2 µM (active)
same,EC50,[12],9.21 µM (active)
same,IC50,[13],7.62 µM (active)
same,IC50,[14],10.3 µM (active)
same,CC50,[15],> 25 µM (active)
same,AC50,[16],29.2 µM (active)
COc1ccc(-c2cc(=O)oc3cc(O)ccc23)cc1,EC50,[17],5.67 µM (active)
same,IC50,[18],2.45 µM (active)
same,IC50,[19],> 20 µM (inactive)
same,EC50,[20],5.73 µM (active)
same,IC50,[21],3.06 µM (active)
same,IC50,[22],> 20 µM (inactive)
Cc1nnc(N2C(=O)C(O)=C(C(=O)c3ccco3)C2c2ccc(F)cc2)s1 (centres undefined),EC50,[23],34.2 µM (active)
same,EC50,[1],> 79.4 µM (inactive)
same,EC50,[2],> 79.4 µM (not active)
same,EC50,[24],32.9 µM (active)
same,EC50,[3],27 µM (not active)
Nn1c(C2CCCCC2)nc2ccccc2c1=O,IC50,[25],> 50 µM (inactive)
Oc1nc(-c2ccccc2)cc(C(F)(F)F)n1,AC50,[26],11.2 µM (inconclusive)
same,AC50,[27],6.31 µM (inconclusive)
same,AC50,[28],inconclusive
Cc1onc(-c2ccccc2)c1CNC(=O)Nc1cccc(Cl)c1,IC50,[13],15 µM (active)
same,IC50,[14],8.35 µM (active)
COc1cccc(NC(=O)Nc2ccccc2SC)c1,IC50,[25],> 50 µM (inactive)
COc1cccc(Nc2nc(-c3sc(NC(=O)c4ccccc4)nc3C)cs2)c1,EC50,[1],14.8 µM (inactive)
same,EC50,[2],> 79.4 µM (not active)
same,EC50,[3],27.9 µM (not active)
Cc1ccc2cccc(/N=C/c3c(C)[nH]n(-c4ccccc4)c3=O)c2n1,EC50,[17],4.72 µM (active)
same,IC50,[18],> 20 µM (inactive)
same,IC50,[19],> 20 µM (inactive)
same,EC50,[20],> 20 µM (inactive)
same,IC50,[21],7.67 µM (active)
same,IC50,[22],> 20 µM (inactive)
Cc1cc(Nc2ccc(C)c(C)c2)n2nc(C)nc2n1,IC50,[25],> 50 µM (inactive)

# — ChEMBL document CHEMBL1201862, “PubChem BioAssay data set” (2004)
